Patent publication US12187688B2, “Crystal form of tetramethylpyrazine nitrone, preparation method and use thereof” (GUANGZHOU MAGPIE PHARMACEUTICALS CO., LTD., priority 2019, dated 2025)
Several values for one entry are separate records, joined by “and”; a condition that tells them apart may be missing. Identical values can stand only once. Like-named read-outs stand apart in the source and are kept apart here. One block for each compound: values may come before it.

What was measured:
[1] = distribution in tissues after intravenous administration to SD rats; format: in vivo; conditions: 30 mg/kg i.v.
Protocol: SD rats were given the crystal form A of TBN at a dose of 30 mg/kg by intravenous injection and the distribution of the crystal form A of TBN in various tissues was investigated.

[2] = pharmacokinetic study in the cerebrospinal fluid of cynomolgus monkey; format: in vivo
Protocol: The pharmacodynamic study in cynomolgus monkey animal model of cerebral stroke and also the pharmacokinetic study of the crystal form A of TBN in the cerebrospinal fluid of cynomolgus monkey were carried out. 10 min, 30 min, 60 min, and 120 min after the second administration (30 mg/kg, 6 hrs after the first intravenous administration of 30 mg/kg), 0.5 ml of cerebrospinal fluid was collected for pharmacokinetic test.

[3] = as above; format: in vivo; conditions: plasma, iv, 30 mg/kg, 10 min after the second administration, 30 mg/kg i.v., read-out: concentration of the drug in plasma
[4] = in vitro cell experiments (effective protection concentration); format: cell-based
Solubility in solvents = format: physicochemical
[5] = Test of stability against mechanical treatment (grinding); format: physicochemical; conditions: ground for 10 min
Protocol: (2) The crystal form A of TBN and the TBN dihydrate were ground for 10 min receptively, and the treated samples were analyzed by XRPD.

[6] = Test of stability against cold/heat treatment; format: physicochemical
Protocol: (4) The crystal form A was cooled to −55° C., and then heated to 25° C.
(5) The crystal form A was heated to 110° C. (before the decomposition point), and then cooled to 25° C. to obtain a yellow oily liquid.
(6) The TBN dihydrate was heated to 110° C. (before the decomposition point), and then cooled to 25° C. to obtain a yellow oily liquid.

Tableting test = format: physicochemical; conditions: 2 tons for 2 min
Protocol: (3) The crystal form A and the TBN dihydrate were tableted under a pressure of 2 tons for 2 min. The tablets thus obtained were analyzed by XRPD.

[7] = Test of influence of acceleration; format: physicochemical
[8] = Polymorph transformation test of suspension; format: physicochemical; conditions: petroleum ether, room temperature, 7 days
Protocol: (1) The crystal form A of TBN was beaten in petroleum ether (1.0 mL) at room temperature for 7 days, and then the suspension was centrifuged, and the solid sample was collected for characterization by XRPD.

- accumulation in the detected tissues [1]: does not tend to accumulate
- time to clearance from the tissues and plasma [1]: ≤ 24 h
- concentration in the brain tissue relative to plasma concentration ([1]; 0.25 hrs after administration): 0.6-0.7 time the plasma concentration
- concentration in the brain tissue relative to plasma concentration ([1]; after 4 hrs): 0.8-1.1 times the plasma concentration
- clearance from brain tissue ([1]; at 24 hrs): completely cleared
- tissue distribution ([1]; female and male): rapid and widespread distribution
- Drug concentration in cerebrospinal fluid ([2]; 10 min after second intravenous 30 mg/kg dose, individual animals, 30 mg/kg): 33700 ng/mL and 34300 ng/mL
- Drug concentration in cerebrospinal fluid ([2]; 30 min after second intravenous 30 mg/kg dose, individual animals, 30 mg/kg): 32200 ng/mL and 25100 ng/mL
- Drug concentration in cerebrospinal fluid ([2]; 60 min after second intravenous 30 mg/kg dose, individual animals, 30 mg/kg): 25300 ng/mL and 20000 ng/mL
- concentration at 10 min ([2]; cerebrospinal fluid, iv, 30 mg/kg, 10 min after second intravenous 30 mg/kg dose, individual animals, read-out: Drug concentration in cerebrospinal fluid): 48800 ng/mL
- concentration at 10 min ([2]; cerebrospinal fluid, iv, 30 mg/kg, 10 min after the second administration, 30 mg/kg i.v., read-out: concentration of TBN in the cerebrospinal fluid): 176 µM
- concentration at 30 min ([2]; cerebrospinal fluid, iv, 30 mg/kg, 30 min after second intravenous 30 mg/kg dose, individual animals, read-out: Drug concentration in cerebrospinal fluid): 41100 ng/mL
- concentration at 60 min ([2]; cerebrospinal fluid, iv, 30 mg/kg, 60 min after second intravenous 30 mg/kg dose, individual animals, read-out: Drug concentration in cerebrospinal fluid): 27500 ng/mL
- concentration at 10 min [3]: 195 µM
SMILES: Cc1nc(C)c(/C=[N+](\[O-])C(C)(C)C)nc1C [TBN, (Z)-2-methyl-N-((3,5,6-trimethylpyrazin-2-yl)methylene)propan-2-amine oxide]
- Drug concentration in cerebrospinal fluid ([2]; 120 min after second intravenous 30 mg/kg dose, individual animals, 30 mg/kg): 16500 ng/mL and 14300 ng/mL and 7800 ng/mL
- effective protection concentration [4]: 30 µM

- solubility (Solubility in solvents; most solvents (acetonitrile, methanol, ethanol, acetone, ethyl acetate)): readily soluble
- solubility (Solubility in solvents; water): very soluble
- crystal form (XRPD) after grinding [5]: no change
- crystal form by XRPD after thermal treatment ([6]; heated to 110° C., cooled to 25° C., solid precipitated after stirring): characterized by XRPD as crystal form A
- polymorph transformation after tableting (XRPD) (Tableting test): do not undergo polymorph transformation
- crystal form by XRPD after acceleration ([7]; 7 days at 40° C. and RH=75%): shows crystal form A
- stability in heat treatment, mechanical treatment and acceleration ([7]; acceleration (50° C., 75% RH)): stable
- crystal form by XRPD after suspension beating [8]: still crystal form A
SMILES: Cc1nc(C)c(/C=[N+](\[O-])C(C)(C)C)nc1C [crystal form A of TBN, (Z)-2-methyl-N-((3,5,6-trimethylpyrazin-2-yl)methylene)propan-2-amine oxide]
- polymorph transformation after cooling treatment ([6]; cooled to −55° C., then heated to 25° C.): does not undergo polymorph transformation
- blood-brain barrier penetration ([2]; 30 mg/kg i.v.): penetrate through the blood-brain barrier
